{"source": "patent US12378211B2", "about": "“Carbonic anhydrase inhibitors and antibiotics against multidrug resistant bacteria” (Purdue Research Foundation, priority 2018, dated 2025)", "key": {"[1]": {"test_system": "Mutant-2 of Enterococcus fecalis NR 31975", "assay": "microbe, parasite or virus in culture", "assay_type": "cell-based"}, "[2]": {"test_system": "Enterococcus faecalis-S613 HM-334", "assay": "MIC in presence of 4% human serum albumin", "assay_type": "cell-based", "details": "TSB supplemented with 4% human serum albumin", "experimental": "The minimum inhibitory concentrations (MICs) of CAIs were tested against vancomycin resistant Enterococcus faecalis—S613 HM 334 strain as per the guidelines provided by the Clinical and Laboratory Standards Institute (CLSI). The selected strain was streaked on Tryptic Soy Agar (TSA) plate and let grow for 24 hours at 37° C. Afterwards, a bacterial solution equivalent to 0.5 McFarland standard was prepared and diluted in tryptone soy broth (TSB) supplemented with 4% human serum albumin (HAS) to achieve a bacterial concentration of about 5×10^5 CFU/mL and seeded in 96-well well plates. Compounds and control drugs were added in the first row of the 96-well plates and serially diluted along the plates. Plates were then incubated aerobically at 37° C. for 18-20 hours. MICs reported in table (6) are the minimum concentration of the compounds/control drugs that could inhibit completely the visual growth of the bacteria."}, "[3]": {"test_system": "Mutant-11 of Enterococcus fecalis NR 31975", "assay": "microbe, parasite or virus in culture", "assay_type": "cell-based"}, "[4]": {"test_system": "Mutant-9 of Enterococcus fecalis NR 31975", "assay": "microbe, parasite or virus in culture", "assay_type": "cell-based"}, "[5]": {"test_system": "Mutant-15 of Enterococcus fecalis NR 31975", "assay": "microbe, parasite or virus in culture", "assay_type": "cell-based"}, "[6]": {"test_system": "Wild-type E. fecalis (NR 31975)", "assay": "MIC against wild-type strain (mutant study)", "assay_type": "cell-based, Enterococcus fecalis"}, "[7]": {"test_system": "fibroblast-like monkey kidney cell line (VERO cell)", "assay": "In vitro cytotoxicity, MTS assay, VERO cells", "assay_type": "cell-based", "details": "at concentration up to 128 μg/mL; tested at 64 and 128 μg/mL; two hours", "experimental": "Toxicity assessment: Compounds AS005H, AS005J, AS004B, AS005K, AS005A and 005D were assayed (at concentrations of 64 and 128 μg/mL) against a fibroblast-like monkey kidney cell line (VERO cell) to determine the potential toxic effect in vitro. Briefly, cells were cultured in Minimum Essential Medium (MEM) supplemented with 10% fetal bovine serum (FBS), 1 mM sodium pyruvate, and penicillin-streptomycin at 37° C. with CO2 (5%). Control cells received DMSO alone at a concentration equal to that in drug-treated cell samples. The cells were incubated with the compounds (in triplicate) in a 96-well plate at 37° C. with CO2 (5%) for two hours. The assay reagent MTS 3-(4,5-dimethylthiazol-2-yl)-5-(3-carboxymethoxyphenyl)-2-(4-sulfophenyl)-2H-tetrazolium) (Promega, Madison, WI, USA) was subsequently added and the plate was incubated for four hours. Absorbance readings (at OD490) were taken using a kinetic microplate reader (Molecular Devices, Sunnyvale, CA, USA). The quantity of viable cells after treatment with each compound was expressed as a percentage of the viability of DMSO-treated control cells (average of triplicate wells±standard deviation). The toxicity data was analyzed via a two-way ANOVA, with post hoc Dunnet's multiple comparisons test (P<0.05), utilizing GraphPad Prism 6.0 (GraphPad Software, La Jolla, CA).\n(§1) Percent viable mammalian cells (measured as average absorbance ratio (test agent relative to DMSO) for cytotoxicity analysis of compounds AS005H, AS005J, AS004B, AS005K, AS005A and 005D (tested in triplicates) at 64 and 128 μg/mL against VERO cells using the MTS 3-(4,5-dimethylthiazol-2-yl)-5-(3-carboxymethoxyphenyl)-2-(4-sulfophenyl)-2H-tetrazolium) assay. Dimethyl sulfoxide (DMSO) was used as a negative control to determine a baseline measurement for the cytotoxic impact of each compound. The absorbance values represent an average of a minimum of three samples analyzed for each compound. Error bars represent standard deviation values for the absorbance values."}, "[8]": {"test_system": "human colorectal adenocarcinoma (Caco-2) cell", "assay": "In vitro cytotoxicity, MTS assay, Caco-2 cells", "details": "at concentration up to 128 μg/mL; tested at 64 and 128 μg/mL; two hours", "experimental": "Method: Compounds AS005H, AS005J, AS004B, AS005K, AS005A and 005D were assayed (at concentrations of 64 and 128 μg/mL) against a human colorectal adenocarcinoma (Caco-2) cell to determine the potential toxic effect to mammalian cells in vitro. Briefly, cells were cultured in Dulbecco's Modified Eagle Medium (DMEM) supplemented with 20% fetal bovine serum (FBS), non-essential amino acids (1×), penicillin-streptomycin at 37° C. with CO2 (5%). Control cells received DMSO alone at a concentration equal to that in drug-treated cell samples. The cells were incubated with the compounds (in triplicate) in a 96-well plate at 37° C. with CO2 (5%) for two hours. The assay reagent MTS 3-(4,5-dimethylthiazol-2-yl)-5-(3-carboxymethoxyphenyl)-2-(4-sulfophenyl)-2H-tetrazolium) (Promega, Madison, WI, USA) was subsequently added and the plate was incubated for four hours. Absorbance readings (at OD490) were taken using a kinetic microplate reader (Molecular Devices, Sunnyvale, CA, USA). The quantity of viable cells after treatment with each compound was expressed as a percentage of the viability of DMSO-treated control cells (average of triplicate wells±standard deviation). The toxicity data was analyzed via a two-way ANOVA, with post hoc Dunnet's multiple comparisons test (P<0.05), utilizing GraphPad Prism 6.0 (GraphPad Software, La Jolla, CA).\nas §1, with “of” for “of compounds”, “005D compounds” for “005D”, “triplicate)” for “triplicates)”, “Caco-2” for “VERO”, “values. […]” for “values.”"}, "[9]": {"details": "Enterococcus, Table 4, read-out: MIC"}}, "note": "Read-outs that look alike come from different tables or passages of the source."}
{"smiles": "CC(=O)Nc1nnc(S(N)(=O)=O)s1", "note": "[Acetazolamide, reference compound]", "values": [{"measurement": "MIC", "setting": "[1]; Enterococcus", "result": 16, "unit": "µg/mL"}, {"measurement": "MIC", "setting": "[2]; Enterococcus, read-out: MIC", "result": "> 256", "unit": "µg/mL"}, {"measurement": "MIC", "setting": "[3]; Enterococcus", "result": 16, "unit": "µg/mL"}, {"measurement": "MIC", "setting": "[4]; Enterococcus", "result": 16, "unit": "µg/mL"}, {"measurement": "MIC", "setting": "[5]; Enterococcus", "result": 32, "unit": "µg/mL"}]}
{"smiles": "NS(=O)(=O)c1nnc(NC(=O)CCC2CCCC2)s1", "note": "[CAI0015]", "values": [{"measurement": "MIC", "setting": "[1]; Mutant-2", "result": 2, "unit": "µg/mL"}, {"measurement": "MIC", "setting": "[2]", "result": ">256", "unit": "µg/mL"}, {"measurement": "MIC", "setting": "[6]; Table 4", "result": 0.0625, "unit": "µg/mL"}, {"measurement": "MIC", "setting": "[3]; Mutant-11", "result": 2, "unit": "µg/mL"}, {"measurement": "MIC", "setting": "[4]; Mutant-9", "result": 1, "unit": "µg/mL"}, {"measurement": "MIC", "setting": "[5]; Mutant-15", "result": 1, "unit": "µg/mL"}, {"measurement": "toxicity to VERO cells (percent viable cells relative to DMSO)", "setting": "[7]", "result": "non-toxic"}]}
{"smiles": "CC(C)=CC(=O)Nc1nnc(S(N)(=O)=O)s1", "note": "[CAI0016, 3-Methyl-N-(5-sulfamoyl-1,3,4-thiadiazol-2-yl) but-2-enamide]", "values": [{"measurement": "MIC", "setting": "[1]; Mutant-2", "result": 8, "unit": "µg/mL"}, {"measurement": "MIC", "setting": "[2]", "result": ">256", "unit": "µg/mL"}, {"measurement": "MIC", "setting": "[6]; Table 4", "result": 1, "unit": "µg/mL"}, {"measurement": "MIC", "setting": "[3]; Mutant-11", "result": 4, "unit": "µg/mL"}, {"measurement": "MIC", "setting": "[4]; Mutant-9", "result": 4, "unit": "µg/mL"}, {"measurement": "MIC", "setting": "[5]; Mutant-15", "result": 8, "unit": "µg/mL"}, {"measurement": "toxicity to VERO cells (percent viable cells relative to DMSO)", "setting": "[7]", "result": "non-toxic"}]}
{"smiles": "CC(C)(C)C(=O)Nc1nnc(S(N)(=O)=O)s1", "note": "[CAI0010, N-(5-Sulfamoyl-1,3,4-thiadiazol-2-yl) pivalamide]", "values": [{"measurement": "toxicity to Caco-2 cells (percent viable cells relative to DMSO)", "setting": "[8]", "result": "non-toxic"}, {"measurement": "MIC", "setting": "[1]; Enterococcus", "result": 8, "unit": "µg/mL"}, {"measurement": "MIC", "setting": "[2]; Enterococcus, read-out: MIC", "result": "> 256", "unit": "µg/mL"}, {"measurement": "MIC", "setting": "[6]; [9]", "result": 0.5, "unit": "µg/mL"}, {"measurement": "MIC", "setting": "[3]; Enterococcus", "result": 4, "unit": "µg/mL"}, {"measurement": "MIC", "setting": "[4]; Enterococcus", "result": 8, "unit": "µg/mL"}, {"measurement": "MIC", "setting": "[5]; Enterococcus", "result": 4, "unit": "µg/mL"}, {"measurement": "toxicity to VERO cells (percent viable cells relative to DMSO)", "setting": "[7]", "result": "non-toxic"}]}
{"smiles": "CCc1ccc(C(=O)Nc2nnc(S(N)(=O)=O)s2)cc1", "note": "[CAI0017, 4-Ethyl-N-(5-sulfamoyl-1,3,4-thiadiazol-2-yl)benzamide]", "values": [{"measurement": "toxicity to Caco-2 cells (percent viable cells relative to DMSO)", "setting": "[8]", "result": "non-toxic"}, {"measurement": "MIC", "setting": "[1]; Enterococcus", "result": 8, "unit": "µg/mL"}, {"measurement": "MIC", "setting": "[6]; [9]", "result": 2, "unit": "µg/mL"}, {"measurement": "MIC", "setting": "[3]; Enterococcus", "result": 8, "unit": "µg/mL"}, {"measurement": "MIC", "setting": "[4]; Enterococcus", "result": 16, "unit": "µg/mL"}, {"measurement": "MIC", "setting": "[5]; Enterococcus", "result": 16, "unit": "µg/mL"}, {"measurement": "toxicity to VERO cells (percent viable cells relative to DMSO)", "setting": "[7]", "result": "non-toxic"}]}
{"smiles": "CC(C)C(=O)Nc1nnc(S(N)(=O)=O)s1", "note": "[CAI0011, N-(5-Sulfamoyl-1,3,4-thiadiazol-2-yl) isobutyramide]", "values": [{"measurement": "toxicity to Caco-2 cells (percent viable cells relative to DMSO)", "setting": "[8]", "result": "non-toxic"}, {"measurement": "toxicity to VERO cells (percent viable cells relative to DMSO)", "setting": "[7]", "result": "non-toxic"}]}
{"smiles": "CC(=O)NC[C@H]1CN(c2ccc(N3CCOCC3)c(F)c2)C(=O)O1", "note": "[Linezolid, reference compound]", "values": [{"measurement": "MIC", "setting": "[1]; Enterococcus", "result": 4, "unit": "µg/mL"}, {"measurement": "MIC", "setting": "[3]; Enterococcus", "result": 4, "unit": "µg/mL"}, {"measurement": "MIC", "setting": "[4]; Enterococcus", "result": 4, "unit": "µg/mL"}, {"measurement": "MIC", "setting": "[5]; Enterococcus", "result": 8, "unit": "µg/mL"}]}
